Assay results from patent US4638005A, “Monoquaternized pyrazinium compounds and their use as electron carriers in photosynthetic processes” (The Coca-Cola Company, priority 1983, dated 1987).
Counter-ions that a name gives are not always drawn.

How the values were obtained:
[1] = target: T1, nitrogenase (Azotobacter vinelandii, UniProt P00459); experiment: Chloroplast-coupled reduction of acetylene to ethylene by nitrogenase (electron carrier bioassay of Benemann); assay type: biochemical; conditions: for ACTIVITY RELATIVE TO FERREDOXIN (%) / ACTIVITY (nmoles C2 H4 /mg protein/min): Table I; for ACTIVITY RELATIVE TO FERREDOXIN (%): acetylene reduction to ethylene; for ACTIVITY (nmoles C2 H4 /mg protein/min): illuminated spinach chloroplasts, synthetic carriers 2 mM, clostridial ferredoxin 0.2 mM; for ETHYLENE FORMATION % Ferredoxin Activity: Table III ranking; for % FERREDOXIN ACTIVITY: Table IV, acetylene reduction
T1 construct: the nitrogenase sample was prepared from a culture of Azotobacter vinelandii; endogenous in cells; host or cells: Azotobacter vinelandii culture; French press lysate, 10,000 x g supernatant (crude)
Experimental: The activity of the pyrazinium compounds as electron carriers in an illuminated photocouple process using isolated chloroplasts and the reductive enzyme catalyst nitrogenease has been determined using the bioassay of Benemann, et al., Proc. Natl. Acad. Sci. USA, 64, 1079(1969). In this method, the carrier activity is measured as a function of nitrogenase reduction of acetylene to ethylene, the rate of production of ethylene being the direct measurement.
(§1) For the bioassay, the nitrogenase sample was prepared from a culture of Azotobacter vinelandii grown to a cell density of about 1 g/l. The cells harvested by centrifugation were broken in a French press, cell debris spun off at 10,000 XG for 1 hr., and the supernatant containing 40 mg/ml protein was used in the bioassay experiments. […] chloroplasts from spinach leaves as described by Benemann were also used. The synthetic carriers were tested in aqueous solutions at concentrations of 2 mM, while the standard, clostridial ferredoxin, was used in 0.2 mM aqueous solution. The concentrations of carriers in the assay mixtures were chosen so as to guarantee carrier saturation conditions. Thus, the observed differences in rates of ethylene production from the substrate acetylene were assigned directly to variations in the efficiency of electron transfer from the illuminated chloroplast to the nitrogenase. The results obtained for acetylene reduction (nitrogen fixation) using the pyrazinium compounds of Examples 1 through 42 are summarized in Table I and are expressed as nmoles of ethylene produced per mg protein per minute.

[2] = target: T1, nitrogenase; experiment: Chloroplast-coupled evolution of hydrogen by nitrogenase in the absence of substrate; assay type: biochemical; conditions: for ACTIVITY RELATIVE TO FERREDOXIN (%) / ACTIVITY (nmoles H2 /mg protein/min): Table II, hydrogen evolution; for ACTIVITY (nmoles H2 /mg protein/min): no nitrogen or acetylene, synthetic carriers 2 mM, ferredoxin 0.2 mM
Experimental: as §1
It has been recognized for sometime the connection existing between hydrogen metabolism and nitrogen fixation. […] When nitrogenase was purified extensively, as mentioned above, it became apparent that in addition to nitrogen, nitrogenase also catalyzed the reduction of protons. The evolution of hydrogen is particularly active in the absence of the normal substrates for nitrogenase (nitrogen, acetylene, cyanide, azide, etc.), and is dependent upon a strong reductant and adenosine triphosphate hydrolysis. Since hydrogen evolution is not inhibited by CO, but reduction of nitrogen and other substrates is, the reduction of protons presumably occurs at a site other than the site of nitrogen reduction, H. C. Winter, et. al., Ann Rev. Biochem, 45, 409 (1976). Accordingly, with the same bioassay system and with exclusion of nitrogen, and acetylene, the activity of the pyrazinium compounds to act as carriers for production of hydrogen has been determined.
The results of this study, which are summarized in Table II, indicate that the pyrazinium salts that mediate the reduction of acetylene with electrons from the photoexcited chloroplast, are also mediating the reduction of protons by the nitrogenase.

[3] = Polarographic half-wave potential (first wave reduction); assay type: physicochemical; conditions: 0.1 M phosphate buffer pH 7.55, 25° C.
Source text: Sci., 65, 1471(1976). Therefore, it was of interest to measure polarographically the half-wave potentials of the several pyrazinium salts under consideration, to determine the possible effect of structure upon their redox potentials.

T1 sequence (P00459 2-290 limits assumed): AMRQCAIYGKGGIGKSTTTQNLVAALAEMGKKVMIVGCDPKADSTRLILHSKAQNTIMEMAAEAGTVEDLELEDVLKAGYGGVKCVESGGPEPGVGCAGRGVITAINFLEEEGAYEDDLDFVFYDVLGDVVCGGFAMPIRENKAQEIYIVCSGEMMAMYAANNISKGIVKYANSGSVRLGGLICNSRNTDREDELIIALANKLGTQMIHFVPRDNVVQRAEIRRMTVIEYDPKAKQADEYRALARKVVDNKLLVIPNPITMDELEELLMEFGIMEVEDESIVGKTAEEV

SMILES | ACTIVITY RELATIVE TO FERREDOXIN (%) [1] [%] | ACTIVITY (nmoles C2 H4 /mg protein/min) [1] | ETHYLENE FORMATION % Ferredoxin Activity [1] [%] | % FERREDOXIN ACTIVITY [1] [%] | ACTIVITY RELATIVE TO FERREDOXIN (%) [2] [%] | ACTIVITY (nmoles H2 /mg protein/min) [2] [nmoles H2 /mg protein/min] | E1/2 vs. SCE (mV) [3] [mV] | HYDROGEN EVOLUTION % Ferredoxin Activity ([2]; Table III ranking) [%]
CC(O)c1c[n+](C)ccn1 (stereo not drawn) [Compound 200, 1-Methyl-3-(1-hydroxyelhyl)pyrazinium iodide] | 17 | 2.3 nmoles C2 H4 /mg protein/min | 17 | 17 | 64 | 17.2 | -699 | –
Cc1c[n+](C)cc(CO)n1.[I-] [Compound 400, 1-Methyl-3-hydroxymethyl-5-methylpyrazinium iodide] | 26 | 3.5 nmoles C2 H4 /mg protein/min | 26 | 26 | 74 | 19.7 | -738 | –
C[n+]1ccnc2ccccc21 [Compound 5200] | 0 | 0.0 nmoles C2 H4 /mg protein/min | 0 | 0 | 0 | 0.0 | -433 | –
Cc1cnc(CS(=O)(=O)[O-])c[n+]1C [Compound 3200] | 98 | 13.3 nmoles C2 H4 /mg protein/min | 98 | 98 | 161 | 43.1 | -673 | –
C[n+]1ccnc(CCC(O)CO)c1.[I-] (stereo not drawn) [Compound 1500, 1-Methyl-3-(3,4-dihydroxybutyl)pyrazinium iodide] | 41 | 5.5 nmoles C2 H4 /mg protein/min | 41 | 41 | 86 | 22.9 | -683 | –
C[n+]1ccnc(C(CCCS(=O)(=O)[O-])CCCS(=O)(=O)O)c1 (stereo not drawn) [Compound 1800, 4-(1-Methyl-3-pyrazinyl)heptane-1,7-disulfonate sodium salt] | 124 | 16.7 nmoles C2 H4 /mg protein/min | 124 | 124 | 129 | 34.4 | -683 | –
C=Cc1c[n+](C)ccn1 [Compound 5100] | – | 1.8 nmoles C2 H4 /mg protein/min | 13 | 13 | – | 2.8 | – | 10
Cc1c[n+](CCCS(=O)(=O)[O-])ccn1 [Compound 600] | 64 | 8.7 nmoles C2 H4 /mg protein/min | 64 | 64 | 106 | 28.4 | -651 | –
Cc1c[n+](CCCS(=O)(=O)[O-])c(C)cn1 [Compound 700, 1-(3-Sulfonylpropyl)-2,5-dimethylpyrazine] | 104 | 14.0 nmoles C2 H4 /mg protein/min | 104 | 104 | 74 | 19.7 | -700 | –
CCc1c[n+](C)ccn1 [Compound 4900] | 2 | 0.3 nmoles C2 H4 /mg protein/min | 2 | 2 | 8 | 2.2 | -700 | –
C[n+]1ccnc(CS(C)(=O)=O)c1 [Compound 4700] | 5 | 0.7 nmoles C2 H4 /mg protein/min | 5 | 5 | 5 | 1.4 | -611 | –
C[n+]1ccnc(C(N)=O)c1 [Compound 4600] | 0 | 0.0 nmoles C2 H4 /mg protein/min | 0 | 0 | 0 | 0.0 | -479 | –
C[n+]1ccnc(C(CC(O)CO)CC(O)CO)c1 (stereo not drawn) [Compound 1700, 1-Methyl-3-[4-(1,2,6,7-tetrahydroxyheptyl)]pyrazinium iodide] | 33 | 4.5 nmoles C2 H4 /mg protein/min | 33 | 33 | 62 | 16.6 | -715 | –
COC(=O)CCc1c[n+](C)ccn1.[I-] [Compound 3901, 1-methyl-3-(2-carbomethoxyethyl)pyrazinium iodide] | 22 | 3.0 nmoles C2 H4 /mg protein/min | 22 | 22 | 26 | 6.9 | -685 | –
COC(=O)c1c[n+](C)ccn1 [Compound 4500] | 0 | 0.0 nmoles C2 H4 /mg protein/min | 0 | 0 | 0 | 0.0 | -390 | –
C[n+]1ccnc(CCC(=O)O)c1.[I-] [Compound 3900, 1-Methyl-3-(2-carboxyethyl)pyrazinium iodide] | 27 | 3.7 nmoles C2 H4 /mg protein/min | 27 | – | 45 | 11.9 | – | –
